Reference: ChEMBL document CHEMBL4007488, “Amphiphilic Indole Derivatives as Antimycobacterial Agents: Structure-Activity Relationships and Membrane Targeting Properties” (J Med Chem, 2017)
Converted amounts (≈) assume the structure as drawn.

Tests used:
[1] = tested on: Mycobacterium tuberculosis variant bovis; test: Antimycobacterial activity against Mycobacterium bovis BCG ATCC 35734 after 5 days by broth dilution method; format: functional; conditions: ATCC 35734, 120 h
[2] = tested on: Mycobacterium tuberculosis variant bovis; test: Antimycobacterial activity against Mycobacterium bovis BCG ATCC 35734 assessed as growth inhibition at 10 uM after 5 days relative to control; format: functional; conditions: ATCC 35734, 120 h, read-out: GI

Structure (SMILES) | MIC50 [1] | MIC90 [1] | inhibition of growth at 10 µM [2]
CCCCCCCCn1cc(CN2CCCCCC2)c2cccc(OC)c21 | 6 µM (≈ 2.22 µg/mL) | 10 µM (≈ 3.71 µg/mL) | 99%
CCCN(CCC)Cc1cn(C/C=C(\C)CCC=C(C)C)c2ccc(F)cc12 | 18 µM (≈ 6.92 µg/mL) | 39 µM (≈ 15 µg/mL) | 99%
CC(C)=CCC/C(C)=C/Cn1cc(CNC23CC4CC(CC(C4)C2)C3)c2cc(F)ccc21 | 17.5 µM (≈ 7.61 µg/mL) | 25.5 µM (≈ 11.1 µg/mL) | 99%
CCCCCCCCn1cc(CN2CCC3(CC2)OCCO3)c2c(F)cccc21 | 3 µM (≈ 1.21 µg/mL) | 6 µM (≈ 2.42 µg/mL) | 99%
CCCCCCCCn1cc(CNCCC)c2cc(F)ccc21 | 10 µM (≈ 3.18 µg/mL) | 20 µM (≈ 6.37 µg/mL) | 99%
CCCCCCCCn1cc(CNC2CC2)c2cc(F)ccc21 | 11 µM (≈ 3.48 µg/mL) | 27 µM (≈ 8.54 µg/mL) | 99%
CCCCCCCCn1cc(CNC23CC4CC(CC(C4)C2)C3)c2c(F)cccc21 | 2 µM (≈ 0.821 µg/mL) | 3 µM (≈ 1.23 µg/mL) | 99%
CCCCCCCCn1cc(CN2CCCC2)c2cc(F)ccc21 | 10 µM (≈ 3.3 µg/mL) | 24 µM (≈ 7.93 µg/mL) | 99%
CCCCCCCCn1cc(CN2CCC(C)CC2)c2cccc(F)c21 | 4 µM (≈ 1.43 µg/mL) | 6 µM (≈ 2.15 µg/mL) | 99%
O=C(Cn1cc(CN2CCCCC2)c2cc(F)ccc21)NC1CC1 | > 50 µM | > 50 µM | 99%
CC(C)=CCC/C(C)=C/Cn1cc(CN2CCSCC2)c2cc(F)ccc21 | 15 µM (≈ 5.8 µg/mL) | 23 µM (≈ 8.89 µg/mL) | 99%
CCCCCCCCn1cc(CN2CCCCCC2)c2cc(F)ccc21 | 4 µM (≈ 1.43 µg/mL) | 6 µM (≈ 2.15 µg/mL) | 99%
CCCCCCCCn1cc(CN(CC)CC)c2cc(F)ccc21 | 10 µM (≈ 3.33 µg/mL) | 36 µM (≈ 12 µg/mL) | 99%
CCCCCCCCn1cc(CNC23CC4CC(CC(C4)C2)C3)c2c(OC)cccc21 | 6 µM (≈ 2.54 µg/mL) | 12 µM (≈ 5.07 µg/mL) | 99%
CCCCCCCCn1cc(CN2CCN(C)CC2)c2cc(F)ccc21 | 13 µM (≈ 4.67 µg/mL) | 36 µM (≈ 12.9 µg/mL) | 99%
CCCCCCCCn1cc(CN2CCCCC2)c2ccc(F)cc21 | 6 µM (≈ 2.07 µg/mL) | 12 µM (≈ 4.13 µg/mL) | 99%
Fc1ccc2c(c1)c(CN1CCCCC1)cn2CCCOc1ccccc1 | 19 µM (≈ 6.96 µg/mL) | 50 µM (≈ 18.3 µg/mL) | 99%
CCCCCCCCn1cc(CN2CCC(C)CC2)c2ccc(F)cc21 | 4 µM (≈ 1.43 µg/mL) | 5 µM (≈ 1.79 µg/mL) | 99%
CCCCCCCCn1cc(CN2CCC(C)CC2)c2cc(OC)ccc21 | 4 µM (≈ 1.48 µg/mL) | 6 µM (≈ 2.22 µg/mL) | 99%
CCCCCCCCn1cc(CN(C)CCC)c2cc(F)ccc21 | 12 µM (≈ 3.99 µg/mL) | 35 µM (≈ 11.6 µg/mL) | 99%
CCCCCCCCn1cc(CNC23CC4CC(CC(C4)C2)C3)c2cccc(OC)c21 | 3 µM (≈ 1.27 µg/mL) | 8 µM (≈ 3.38 µg/mL) | 99%
CCCCCCCCn1cc(CN2CCCCC2)c2cc(Cl)ccc21 | 5 µM (≈ 1.8 µg/mL) | 9 µM (≈ 3.25 µg/mL) | 99%
CCCCCCCCn1cc(CN2CCCCC2)c2c(F)cccc21 | 6 µM (≈ 2.07 µg/mL) | 11 µM (≈ 3.79 µg/mL) | 99%
CCCCCCCCn1cc(CN2CCCCC2)c2ccc(OC)cc21 | 7 µM (≈ 2.5 µg/mL) | 13 µM (≈ 4.64 µg/mL) | 99%

Structure (SMILES) | MIC50 [1] | MIC90 [1] | inhibition of growth at 10 µM [2]
CCN1CCN(Cc2cn(C/C=C(\C)CCC=C(C)C)c3ccc(F)cc23)CC1 | 13 µM (≈ 5.17 µg/mL) | 25 µM (≈ 9.94 µg/mL) | 99%
CC(C)=CCC/C(C)=C/Cn1cc(CN2CCCCC2)c2ccccc21 | 3 µM (≈ 1.05 µg/mL) | 6 µM (≈ 2.1 µg/mL) | 99%
CCCCCCCCn1cc(CNC23CC4CC(CC(C4)C2)C3)c2ccc(OC)cc21 | 3 µM (≈ 1.27 µg/mL) | 6 µM (≈ 2.54 µg/mL) | 99%
CCCCn1cc(CN2CCCCC2)c2cc(F)ccc21 | > 50 µM | 100 µM (≈ 28.8 µg/mL) | 99%
CC(C)=CCC/C(C)=C/Cn1ccc2cc(F)ccc21 | > 50 µM | > 50 µM | 99%
CC(C)=CCC/C(C)=C/Cn1cc(CN2CCCCCC2)c2cc(F)ccc21 | 4 µM (≈ 1.53 µg/mL) | 7 µM (≈ 2.68 µg/mL) | 99%
CCCCn1cc(CN2CCCCCC2)c2c(F)cccc21 | 10 µM (≈ 3.02 µg/mL) | 23 µM (≈ 6.96 µg/mL) | 99%
Fc1ccc2[nH]cc(CN3CCCCC3)c2c1 | > 50 µM | > 50 µM | 99%
CCCCCCCCn1cc(CN2CCCCCC2)c2cc(OC)ccc21 | 4 µM (≈ 1.48 µg/mL) | 5 µM (≈ 1.85 µg/mL) | 99%
CCCCCCCCn1cc(CNC2CCCCCC2)c2cc(F)ccc21 | 3 µM (≈ 1.12 µg/mL) | 16 µM (≈ 5.96 µg/mL) | 99%
CC(C)=CCC/C(C)=C/Cn1cc(C(=O)N2CCCCC2)c2cc(F)ccc21 | > 50 µM | > 50 µM | 99%
CC(C)=CCC/C(C)=C/Cn1cc(CN2CCC3(CC2)OCCO3)c2cc(F)ccc21 | 5 µM (≈ 2.13 µg/mL) | 9 µM (≈ 3.84 µg/mL) | 99%
CCCCCCCCn1cc(CN2CCC(C)CC2)c2ccc(OC)cc21 | 3 µM (≈ 1.11 µg/mL) | 5 µM (≈ 1.85 µg/mL) | 99%
CC(C)=CCC/C(C)=C/Cn1cc(CN2CCCCC2)c2cc(F)ccc21 | 5 µM (≈ 1.84 µg/mL) | 11 µM (≈ 4.05 µg/mL) | 99%
CCCCCCCCCCCCn1cc(CN2CCCCCC2)c2c(F)cccc21 | 7 µM (≈ 2.9 µg/mL) | 10 µM (≈ 4.15 µg/mL) | 99%
CCN(CC)Cc1cn(C/C=C(\C)CCC=C(C)C)c2ccc(F)cc12 | 13 µM (≈ 4.63 µg/mL) | 24 µM (≈ 8.56 µg/mL) | 99%
CC(C)=CCC/C(C)=C/Cn1cc(CN2CCOCC2)c2cc(F)ccc21 | 15.5 µM (≈ 5.74 µg/mL) | > 50 µM | 99%
CCCCCCCCn1cc(CN2CCC3(CC2)OCCO3)c2cccc(F)c21 | 3 µM (≈ 1.21 µg/mL) | 7 µM (≈ 2.82 µg/mL) | 99%
CCCCCCCCn1cc(CN2CCN(CC)CC2)c2cc(F)ccc21 | 13 µM (≈ 4.86 µg/mL) | 32 µM (≈ 12 µg/mL) | 99%
Fc1ccc2c(c1)c(CN1CCCCC1)cn2CCCc1ccccc1 | 10 µM (≈ 3.5 µg/mL) | 20 µM (≈ 7.01 µg/mL) | 99%
CCCCCCCCn1cc(CN2CCC3(CC2)OCCO3)c2cc(F)ccc21 | 3 µM (≈ 1.21 µg/mL) | 5 µM (≈ 2.01 µg/mL) | 99%
CCCCCCCCn1cc(CN2CCCCC2)c2cccc(F)c21 | 8 µM (≈ 2.76 µg/mL) | 11 µM (≈ 3.79 µg/mL) | 99%
CC(C)=CCC/C(C)=C/Cn1cc(CN2CCCCC2)c2cc(Br)ccc21 | 8 µM (≈ 3.44 µg/mL) | 10 µM (≈ 4.29 µg/mL) | 99%
Fc1cccc2[nH]cc(CN3CCCCCC3)c12 | > 50 µM | > 50 µM | 99%

Structure (SMILES) | MIC50 [1] | MIC90 [1] | inhibition of growth at 10 µM [2]
N#CCCCn1cc(CN2CCCCC2)c2cc(F)ccc21 | > 50 µM | > 50 µM | 99%
Fc1ccc2c(c1)c(CN1CCCCC1)cn2Cc1ccccc1 | 35 µM (≈ 11.3 µg/mL) | > 50 µM | 99%
CC(C)=CCC/C(C)=C/Cn1cc(CN2CCCCC2)c2cccnc21 | > 50 µM | > 50 µM | 99%
CCCCCCCCn1cc(CN2CCCCC2)c2cc(F)ccc21 | 6 µM (≈ 2.07 µg/mL) | 11 µM (≈ 3.79 µg/mL) | 99%
CCCCCCCCn1cc(CNC23CC4CC(CC(C4)C2)C3)c2cc(F)ccc21 | 2.5 to 3 µM (≈ 1.03 to 1.23 µg/mL) | 5.5 to 6 µM (≈ 2.26 to 2.46 µg/mL) | 99%
CCCCCCCCn1cc(CN2CCCCC2)c2cc(OC)ccc21 | 5 µM (≈ 1.78 µg/mL) | 7.5 to 8 µM (≈ 2.67 to 2.85 µg/mL) | 99%
CCCCCCCCn1cc(CN2CCCCC2)c2cc(Br)ccc21 | 5 µM (≈ 2.03 µg/mL) | 9 µM (≈ 3.65 µg/mL) | 99%
CCCCCCCCn1cc(CNC2CCCC2)c2cc(F)ccc21 | 6 µM (≈ 2.07 µg/mL) | 21 µM (≈ 7.23 µg/mL) | 99%
CCCCCCCCn1ccc2cc(F)ccc21 | > 50 µM | > 50 µM | 99%
CCCCCCCCn1cc(CN2CCC(C)CC2)c2c(F)cccc21 | 2 µM (≈ 0.717 µg/mL) | 5 µM (≈ 1.79 µg/mL) | 99%
CCCCCCCCn1cc(CN2CCCCCC2)c2c(OC)cccc21 | 6 µM (≈ 2.22 µg/mL) | 11 µM (≈ 4.08 µg/mL) | 99%
CCCN(CC)Cc1cn(C/C=C(\C)CCC=C(C)C)c2ccc(F)cc12 | 13 µM (≈ 4.82 µg/mL) | 25 µM (≈ 9.26 µg/mL) | 99%
CCCCCCCCn1cc(CN2CCCCCC2)c2ccc(OC)cc21 | 4 µM (≈ 1.48 µg/mL) | 6 µM (≈ 2.22 µg/mL) | 99%
CCCCCCCCn1cc(CN2CCSCC2)c2cc(F)ccc21 | 11 µM (≈ 3.99 µg/mL) | > 50 µM | 99%
CC(C)=CCC/C(C)=C/Cn1cc(CNC2CCCCCC2)c2cc(F)ccc21 | 45 µM (≈ 17.8 µg/mL) | 50 µM (≈ 19.8 µg/mL) | 99%
CC(C)=CCC/C(C)=C/Cn1cc(CN2CCCC2)c2cc(F)ccc21 | 13 µM (≈ 4.61 µg/mL) | 25 µM (≈ 8.86 µg/mL) | 99%
CCCCCCCCn1ccc2c(F)cccc21 | > 50 µM | > 50 µM | 99%
CC(C)=CCC/C(C)=C/Cn1cc(CN2CCC(C)CC2)c2cc(F)ccc21 | 4 µM (≈ 1.53 µg/mL) | 6 µM (≈ 2.3 µg/mL) | 99%
CC(C)=CCC/C(C)=C/Cn1cc(CN2CCCCC2)c2cc(Cl)ccc21 | 7 µM (≈ 2.69 µg/mL) | 10 µM (≈ 3.85 µg/mL) | 99%
CCCCCCCCn1cc(CN2CCC3(CC2)OCCO3)c2cc(OC)ccc21 | 5 µM (≈ 2.07 µg/mL) | 9 µM (≈ 3.73 µg/mL) | 99%
CCCCCCCCn1cc(CNC23CC4CC(CC(C4)C2)C3)c2ccc(F)cc21 | 3 µM (≈ 1.23 µg/mL) | 5 µM (≈ 2.05 µg/mL) | 99%
CCCCCCCCn1cc(CN2CCC(C)CC2)c2cc(F)ccc21 | 4 µM (≈ 1.43 µg/mL) | 6 µM (≈ 2.15 µg/mL) | 99%
